Laboratory results taken from patent US20250049970A1, “DLL3 TARGETING PEPTIDES AND CONSTRUCTS THEREOF” (MARIANA ONCOLOGY INC., priority 2023, published 2025).
*1 amine or outer side, *2 acyl side, *3 side chain or, on linkers, in order; H or OH if unused. Where a SMILES comes first, the peptide text is derived from it. Bridges are numbered along the chain shown (N, C = ends). [ ]: non-standard residue; d: D form. The star is where a group is joined. ξ: configuration not given here. X9 = CSCC[C@H](NC(=O)c1ccc(CNC(=O)CN2CCN(CC(=O)O)CCN(CC(=O)O)CCN(CC(=O)O)CC2)cc1)C(=O)N[C@H](C(=O)N[C@@H](CCCCN*)C(=O)O)C(C)C; X7 = O=C(O)CN1CCN(CC(=O)O)CCN(CC(=O)N[C@H]2CC[C@H](CC(=O)*)CC2)CCN(CC(=O)O)CC1; X10 = O=C(O)CN1CCN(CC(=O)O)CCN(CC(=O)NC2CCC(CC(=O)*)CC2)CCN(CC(=O)O)CC1; Ala(piperidin-4-yl) = O=C([C@H](CC1CCN([*:3])CC1)N[*:1])[*:2]; DOTA = O=C(O)CN1CCN(CC(=O)O)CCN(CC(=O)*)CCN(CC(=O)O)CC1; Trp(7-OMe) = COc1cccc2c(C[C@H](N)C(=O)O)c[nH]c12; Trp(7-Me) = Cc1cccc2c(C[C@H](N)C(=O)O)c[nH]c12; 2Nal = N[C@@H](Cc1ccc2ccccc2c1)C(=O)O; tBuAla = CC(C)(C)C[C@H](N)C(=O)O; Chg = N[C@H](C(=O)O)C1CCCCC1; NMeNle = CCCC[C@H](NC)C(=O)O; αMeP = C[C@@]1(C(=O)O)CCCN1; ξN = NC(=O)CC(N)C(=O)O; CH2 = C([*:1])[*:2]; ξP = O=C(O)C1CCCN1

Each compound was assayed against T1, DLL3 (Homo sapiens, UniProt Q9NYJ7) (assay: SPR KD, biotinylated human DLL3 on streptavidin chip (Table 8)). Conditions: biotinylated human DLL3 on streptavidin sensor chip, 25° C., 1:1 binding model; read-out: SPR KD.
T1 sequence (Q9NYJ7 27-618): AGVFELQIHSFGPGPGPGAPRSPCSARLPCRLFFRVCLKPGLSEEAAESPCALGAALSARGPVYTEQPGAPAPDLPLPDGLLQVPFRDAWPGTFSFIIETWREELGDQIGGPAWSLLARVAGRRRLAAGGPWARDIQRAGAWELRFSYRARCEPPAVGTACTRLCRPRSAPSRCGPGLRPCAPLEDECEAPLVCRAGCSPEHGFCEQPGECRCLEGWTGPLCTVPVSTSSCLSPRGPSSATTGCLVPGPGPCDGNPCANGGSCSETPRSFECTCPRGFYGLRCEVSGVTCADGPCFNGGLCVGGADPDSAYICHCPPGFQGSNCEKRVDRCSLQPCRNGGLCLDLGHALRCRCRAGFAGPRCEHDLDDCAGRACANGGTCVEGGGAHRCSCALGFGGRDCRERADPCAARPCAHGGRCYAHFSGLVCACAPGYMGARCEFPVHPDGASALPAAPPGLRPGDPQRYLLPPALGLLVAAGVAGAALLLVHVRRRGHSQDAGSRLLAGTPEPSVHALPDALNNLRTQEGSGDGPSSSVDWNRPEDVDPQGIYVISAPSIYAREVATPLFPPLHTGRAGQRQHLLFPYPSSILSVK
Parameters: biotin (biotinylated)
Description: Biotinylated target ligand human DLL3 was immobilized on a streptavidin sensor chip. A reference surface was set up for nonspecific binding and refractive index changes. […] Sensorgram curves were fitted with 1:1 binding model, and affinity and kinetic parameters were obtained using Biacore Insight evaluation 4.0. software.
Work on `CC(=O)N[C@H](Cc1c[nH]c2ccccc12)C(=O)N[C@@H](C(=O)N[C@@H](CC(C)(C)C)C(=O)N[C@@H]1CSCSC[C@@H](C(=O)N[C@@H](Cc2c[nH]c3ccccc23)C(=O)N2CCC[C@H]2C(N)=O)NC(=O)[C@H](CC(=O)O)NC(=O)[C@H](CCCCNC(=O)CN2CCN(CC(=O)O)CCN(CC(=O)O)CCN(CC(=O)O)CC2)NC(=O)[C@H](Cc2ccc3ccccc3c2)NC(=O)[C@H](CC(N)=O)NC(=O)[C@H](CC(N)=O)NC1=O)[C@H](C)O` [compound 423, Ac-W-T-(t-Bu-Ala)-[D-Cys(1)]-N-N-(2Nal)-Lys(DOTA)-D-C(1)-W-P-CONH2] (Ac-[dW][dT][tBuAla][dC]NN[2Nal]K(DOTA)DCWP-NH2; linker 4-10 via CH2) yielded a Kd of 100 to 300 nM. `CC(=O)N[C@H](Cc1c[nH]c2ccccc12)C(=O)N[C@@H](C(=O)N[C@@H](CC(C)(C)C)C(=O)N[C@H]1CSCSC[C@H](C(=O)N[C@@H](Cc2c[nH]c3ccccc23)C(=O)N2CCC[C@H]2C(N)=O)NC(=O)[C@H](CC(=O)O)NC(=O)[C@H](CCCCNC(=O)CN2CCN(CC(=O)O)CCN(CC(=O)O)CCN(CC(=O)O)CC2)NC(=O)[C@H](Cc2ccc3ccccc3c2)NC(=O)[C@H](CC(N)=O)NC(=O)[C@H](CC(N)=O)NC1=O)[C@H](C)O` [compound 424, Ac-W-T-(t-Bu-Ala)-C(1)-N-N-(2Nal)-Lys(DOTA)-D-[D-Cys(1)]-W-P-CONH2] (Ac-[dW][dT][tBuAla]CNN[2Nal]K(DOTA)D[dC]WP-NH2; linker 4-10 via CH2) showed a Kd of less than 1 nM. `CSCC[C@H](NC(=O)c1ccc(CNC(=O)CN2CCN(CC(=O)O)CCN(CC(=O)O)CCN(CC(=O)O)CC2)cc1)C(=O)N[C@H](C(=O)N[C@@H](CCCCNC(=O)CC[C@@H]1NC(=O)[C@H](Cc2ccc3ccccc3c2)NC(=O)[C@H](CC(N)=O)NC(=O)[C@H](CC2CCNCC2)NC(=O)[C@@H](NC(=O)[C@@H](NC(=O)[C@@H](NC(=O)[C@H](Cc2c[nH]c3ccccc23)NC(C)=O)[C@@H](C)O)C2CCCCC2)CSCSC[C@@H](C(=O)N[C@@H](Cc2c[nH]c3ccccc23)C(=O)N2CCC[C@H]2C(N)=O)NC(=O)[C@H](CC(=O)O)NC1=O)C(=O)O)C(C)C` [compound 425] (Ac-WT[Chg]C[Ala(piperidin-4-yl)]N[2Nal]E(X9)DCWP-NH2; linker 4-10 via CH2) showed a Kd of less than 1 nM. Compound `CC(=O)N[C@@H](Cc1c[nH]c2c(C)cccc12)C(=O)N[C@H](C(=O)N[C@H](C(=O)N[C@H]1CSCSC[C@@H](C(=O)N[C@@H](Cc2c[nH]c3ccccc23)C(=O)N2CCC[C@H]2C(N)=O)NC(=O)[C@H](CC(=O)O)NC(=O)[C@H](CCCCNC(=O)CN2CCN(CC(=O)O)CCN(CC(=O)O)CCN(CC(=O)O)CC2)NC(=O)[C@H](Cc2ccc3ccccc3c2)NC(=O)[C@H](CC(N)=O)NC(=O)[C@H](CC2CCNCC2)NC1=O)C1CCCCC1)[C@@H](C)O` [compound 428, Ac-(7Me-Trp)-T-(Chg)-C(1)-[3-(4-piperidinyl)-Ala]-N-(2Nal)-Lys(DOTA)-D-C(1)-W-P-NH2] (Ac-[Trp(7-Me)]T[Chg]C[Ala(piperidin-4-yl)]N[2Nal]K(DOTA)DCWP-NH2; linker 4-10 via CH2) has a Kd of less than 1 nM. `COc1cccc2c(C[C@H](NC(C)=O)C(=O)N[C@H](C(=O)N[C@H](C(=O)N[C@H]3CSCSC[C@@H](C(=O)N[C@@H](Cc4c[nH]c5ccccc45)C(=O)N4CCCC4C(N)=O)NC(=O)[C@H](CC(=O)O)NC(=O)[C@H](CCCCNC(=O)CN4CCN(CC(=O)O)CCN(CC(=O)O)CCN(CC(=O)O)CC4)NC(=O)[C@H](Cc4ccc5ccccc5c4)NC(=O)[C@H](CC(N)=O)NC(=O)[C@H](CC4CCNCC4)NC3=O)C3CCCCC3)[C@@H](C)O)c[nH]c12` (stereo partly drawn) [compound 430, Ac-(7MeO-Trp)-T-(Chg)-C(1)-[3-(4-piperidinyl)-Ala]-N-(2Nal)-Lys(DOTA)-D-C(1)-W-P-CONH2] (Ac-[Trp(7-OMe)]T[Chg]C[Ala(piperidin-4-yl)]N[2Nal]K(DOTA)DCW[ξP]-NH2; linker 4-10 via CH2) was tested, and the Kd was less than 1 nM. For `CCCC[C@@H](C(=O)N[C@H]1CSCSC[C@@H](C(=O)N[C@@H](Cc2c[nH]c3ccccc23)C(=O)N2CCC[C@H]2C(N)=O)NC(=O)[C@H](CC(=O)O)NC(=O)[C@H](CCCCNC(=O)CN2CCN(CC(=O)O)CCN(CC(=O)O)CCN(CC(=O)O)CC2)NC(=O)[C@H](Cc2ccc3ccccc3c2)NC(=O)[C@H](CC(N)=O)NC(=O)[C@H](CC2CCNCC2)NC1=O)N(C)C(=O)[C@@H](NC(=O)[C@H](Cc1c[nH]c2c(C)cccc12)NC(C)=O)[C@@H](C)O` [compound 431, Ac-(7Me-Trp)-T-(NMe-Nle)-C(1)-[3-(4-piperidinyl)-Ala]-N-(2Nal)-Lys(DOTA)-D-C(1)-W-P-CONH2] (Ac-[Trp(7-Me)]T[NMeNle]C[Ala(piperidin-4-yl)]N[2Nal]K(DOTA)DCWP-NH2; linker 4-10 via CH2), the Kd was less than 1 nM. `CC(=O)N[C@@H](Cc1c[nH]c2ccccc12)C(=O)N[C@H](C(=O)N[C@H](C(=O)N[C@H]1CSCSC[C@@H](C(=O)N[C@@H](Cc2c[nH]c3ccccc23)C(=O)N2CCC[C@H]2C(N)=O)NC(=O)[C@H](CC(=O)O)NC(=O)[C@H](CCCCNC(=O)CC2CCC(NC(=O)CN3CCN(CC(=O)O)CCN(CC(=O)O)CCN(CC(=O)O)CC3)CC2)NC(=O)[C@H](Cc2ccc3ccccc3c2)NC(=O)C(CC(N)=O)NC(=O)[C@H](CC2CCNCC2)NC1=O)C1CCCCC1)[C@@H](C)O` (stereo partly drawn) [compound 432, Ac-W-T-(Chg)-C(1)-[3-(4-piperidinyl)-Ala]-N-(2Nal)-Lys(Chx-DOTA)-D-C(1)-W-P-CONH2] (Ac-WT[Chg]C[Ala(piperidin-4-yl)][ξN][2Nal]K(X10)DCWP-NH2; linker 4-10 via CH2) showed a Kd of less than 1 nM. Work on `CC(=O)N[C@@H](Cc1c[nH]c2ccccc12)C(=O)N[C@H](C(=O)N[C@@H](CC(C)(C)C)C(=O)N[C@H]1CSCSC[C@@H](C(=O)N[C@@H](Cc2c[nH]c3ccccc23)C(=O)N2CCC[C@H]2C(N)=O)NC(=O)[C@H](CC(=O)O)NC(=O)[C@H](CCCCNC(=O)C[C@H]2CC[C@H](NC(=O)CN3CCN(CC(=O)O)CCN(CC(=O)O)CCN(CC(=O)O)CC3)CC2)NC(=O)[C@H](Cc2ccc3ccccc3c2)NC(=O)[C@H](CC(N)=O)NC(=O)[C@H](CC2CCNCC2)NC1=O)[C@@H](C)O` [compound 434, Ac-W-T-(t-Bu-Ala)-C(3)-[3-(4-piperidinyl)-Ala]-N-(2Nal)-Lys(Chx-DOTA)-D-C(3)-W-P-NH2] (Ac-WT[tBuAla]C[Ala(piperidin-4-yl)]N[2Nal]K(X7)DCWP-NH2; linker 4-10 via CH2) yielded a Kd of less than 1 nM. `CC(=O)N[C@@H](Cc1c[nH]c2ccccc12)C(=O)N[C@H](C(=O)N[C@@H](CC(C)(C)C)C(=O)N[C@H]1CSCSC[C@@H](C(=O)N[C@@H](Cc2c[nH]c3ccccc23)C(=O)N2CCC[C@@]2(C)C(=O)O)NC(=O)[C@H](CC(=O)O)NC(=O)[C@H](CCCCNC(=O)CN2CCN(CC(=O)O)CCN(CC(=O)O)CCN(CC(=O)O)CC2)NC(=O)[C@H](Cc2ccc3ccccc3c2)NC(=O)[C@H](CC(N)=O)NC(=O)[C@H](CC2CCNCC2)NC1=O)[C@@H](C)O` [compound 436, Ac-W-T-(t-Bu-Ala)-C(1)-[3-(4-piperidinyl)-Ala]-N-(2Nal)-Lys(DOTA)-D-C(1)-W-(aMe-P)-COOH] (Ac-WT[tBuAla]C[Ala(piperidin-4-yl)]N[2Nal]K(DOTA)DCW[αMeP]-OH; linker 4-10 via CH2) gave a Kd of less than 1 nM. `CC(=O)NCCCC[C@@H](NC(=O)[C@@H]1CCCN1C(=O)[C@H](Cc1c[nH]c2ccccc12)NC(=O)[C@@H]1CSCSC[C@H](NC(=O)[C@H](CC(C)(C)C)NC(=O)[C@@H](NC(=O)[C@H](Cc2c[nH]c3ccccc23)NC(C)=O)[C@@H](C)O)C(=O)N[C@@H](CC2CCNCC2)C(=O)N[C@@H](CC(N)=O)C(=O)N[C@@H](Cc2ccc3ccccc3c2)C(=O)N[C@@H](CCCCNC(=O)CN2CCN(CC(=O)O)CCN(CC(=O)O)CCN(CC(=O)O)CC2)C(=O)N[C@@H](CC(=O)O)C(=O)N1)C(N)=O` [compound 438, Ac-W-T-(t-Bu-Ala)-C(1)-[3-(4-piperidinyl)-Ala]-N-(2Nal)-Lys(DOTA)-D-C(1)-W-P-[D-Lys(Ac)]-CONH2] (Ac-WT[tBuAla]C[Ala(piperidin-4-yl)]N[2Nal]K(DOTA)DCWP[dK](Ac)-NH2; linker 4-10 via CH2) gave a Kd of less than 1 nM. With `CC(=O)NCCCC[C@@H](NC(=O)[C@@H]1CCCN1C(=O)[C@H](Cc1c[nH]c2ccccc12)NC(=O)[C@@H]1CSCSC[C@H](NC(=O)[C@H](CC(C)(C)C)NC(=O)[C@@H](NC(=O)[C@H](Cc2c[nH]c3ccccc23)NC(C)=O)[C@@H](C)O)C(=O)N[C@@H](CC2CCNCC2)C(=O)N[C@@H](CC(N)=O)C(=O)N[C@@H](Cc2ccc3ccccc3c2)C(=O)N[C@@H](CCCCNC(=O)CN2CCN(CC(=O)O)CCN(CC(=O)O)CCN(CC(=O)O)CC2)C(=O)N[C@@H](CC(=O)O)C(=O)N1)C(=O)O` [compound 439, Ac-W-T-(t-Bu-Ala)-C(1)-[3-(4-piperidinyl)-Ala]-N-(2Nal)-Lys(DOTA)-D-C(1)-W-P-[D-Lys(Ac)]-COOH] (Ac-WT[tBuAla]C[Ala(piperidin-4-yl)]N[2Nal]K(DOTA)DCWP[dK](Ac)-OH; linker 4-10 via CH2) the Kd was less than 1 nM.
